Experimental data reported in ChEMBL document CHEMBL5154804, “Species-Selective Targeting of Fungal Hsp90: Design, Synthesis, and Evaluation of Novel 4,5-Diarylisoxazole Derivatives for the Combination Treatment of Azole-Resistant Candidiasis” (J Med Chem, 2022).

Assays:
[1] = Metabolic stability in human liver microsomes assessed as intrinsic clearance in presence of NADPH cofactor under shaking condition for 10 mins measured after 5 to 60 mins by LC-MS/MS analysis; assay type: ADME, Microsome; conditions: time 15-70 min
[2] = Metabolic stability in human liver microsomes assessed as microsomal intrinsic clearance in presence of NADPH cofactor under shaking condition for 10 mins measured after 5 to 60 mins by LC-MS/MS analysis; assay type: ADME, Microsome; conditions: time 15-70 min
[3] = Metabolic stability in human liver microsomes assessed as compound remaining in presence of NADPH cofactor under shaking condition for 10 mins measured after 60 mins by LC-MS/MS analysis; assay type: ADME, Microsome; conditions: time 70 min, read-out: Stability
[4] = Metabolic stability in human liver microsomes assessed as half life in presence of NADPH cofactor under shaking condition for 10 mins measured after 5 to 60 mins by LC-MS/MS analysis; assay type: ADME, Microsome; conditions: time 15-70 min
Candida albicans [5] = assay: Synergistic antifungal activity against fluconazole-resistant Candida albicans 904 assessed as inhibition of fungal growth in presence of fluconazole by checker board microdilution assay; assay type: functional
Candida albicans [6] = assay: Synergistic antifungal activity against fluconazole-resistant Candida albicans 632 assessed as inhibition of fungal growth in presence of fluconazole by checker board microdilution assay; assay type: functional
Candida albicans [7] = assay: Synergistic antifungal activity against fluconazole-resistant Candida albicans 901 assessed as inhibition of fungal growth in presence of fluconazole by checker board microdilution assay; assay type: functional
Candida albicans [8] = assay: Synergistic antifungal activity against fluconazole-resistant Candida albicans 100 assessed as inhibition of fungal growth in presence of fluconazole by checker board microdilution assay; assay type: functional
Candida albicans [9] = assay: Synergistic antifungal activity against fluconazole-resistant Candida albicans 103 assessed as inhibition of fungal growth in presence of fluconazole by checker board microdilution assay; assay type: functional
Candida albicans [10] = assay: Synergistic antifungal activity against fluconazole-resistant Candida albicans 311 assessed as inhibition of fungal growth in presence of fluconazole by checker board microdilution assay; assay type: functional
Heat shock protein HSP90 = Heat shock protein HSP90 (Homo sapiens, UniProt P07900+P08238); assay: Binding affinity to human Hsp90 expressed in Escherichia coli by SPR assay
[11] = Binding affinity to recombinant Candida albicans Hsp90 NBD expressed in Escherichia coli by SPR assay

Compound | CLint [1] [mL/min/kg] | CLint [2] [µL/min/mg] | remaining at 1.167 h [3] [%] | half-life [4] [min] | MIC80 (Candida albicans [5]) [µg/mL] | MIC80 (Candida albicans [6]) [µg/mL] | MIC80 (Candida albicans [7]) [µg/mL] | MIC80 (Candida albicans [8]) [µg/mL] | MIC80 (Candida albicans [9]) [µg/mL] | MIC80 (Candida albicans [10]) [µg/mL] | Kd (Heat shock protein HSP90) [µM] | Kd [11] [µM]
CCNC(=O)c1noc(-c2cc(-c3cccc(Cl)c3)c(O)cc2O)c1-c1ccc(CN2CCOCC2)cc1 | 64.8 | 72 | 12.1 | 19.3 | 0.25 | 0.5 | 1 | 1 | 0.5 | 1 | – | –
CCNC(=O)c1noc(-c2cc(-c3ccccc3)c(O)cc2O)c1-c1ccc(CN2CCOCC2)cc1 | – | – | – | – | 2 | 4 | 1 | 2 | 4 | 4 | > 25 | 7.91
CCNC(=O)c1noc(-c2cc(-c3cccc(C(C)(C)C)c3)c(O)cc2O)c1-c1ccc(CN2CCOCC2)cc1 | – | – | – | – | > 64 | > 64 | > 64 | > 64 | > 64 | > 64 | – | –
C[C@@H]1C[C@H]2O[C@@H]2/C=C\C=C\C(=O)Cc2c(Cl)c(O)cc(O)c2C(=O)O1 [RADICICOL] | – | – | – | – | 0.5 | 1 | 1 | 0.5 | 1 | 1 | – | 0.002
